Test results from patent US4105659A, “1,2,3,4,5,6-Hexahydro-2,6-methano-3-benzazocines” (Sterling Drug Inc., priority 1964, dated 1978).
Where a name gives a salt, the structure may show the parent alone. Read-outs that look alike come from different tables or passages of the source.

What was measured:
[1] = D'Amour-Smith test for analgesia in rats; format: in vivo
Method: In tests as in animals as analgesics and as antagonists of strong analgesics, the racemic, dextro, and levo forms of trans 1,2,3,4,5,6-hexahydro-3-(3-methyl-2-butenyl)-6-ethyl-11-methyl-8-hydroxy-2,6-methano-3-benzazocine described in Example 7D above gave results substantially differing from those of the corresponding cis forms and of the related compounds of this invention. Thus, in the analgesic antagonist test versus a 60 mg/kg. dose of meperidine, the maximum degree of antagonism which could be obtained for these three trans forms was: for the racemic trans form, 50 percent antagonism at 0.1 mg/kg.; for the dextro trans form, 30 percent antagonism at 1.25 mg./kg.; and for the levo trans form, 22 percent antagonism at 0.1 mg./kg.

[2] = system: analgesic effect of meperidine hydrochloride; test: Antagonism of meperidine analgesia, modified D'Amour-Smith test; details: for maximum degree of antagonism: versus 60 mg/kg. meperidine; for dosage of antagonist which reduced the analgesic effect of meperidine by approximately 50 per cent: subcutaneous, rats, lactic acid acid-addition salt, versus 60 mg./kg. meperidine hydrochloride; for ED50: Rattus norvegicus, sc, read-out: dosage of antagonist which reduced the analgesic effect of meperidine by approximately 50 per cent
[3] = system: analgesic effect of morphine sulfate; test: Antagonism of morphine analgesia, modified D'Amour-Smith test; details: for dosage of antagonist which reduced the analgesic effect of morphine by approximately 50 per cent: subcutaneous, rats, lactic acid acid-addition salt, versus 15 mg./kg. morphine sulfate; for ED50: Rattus norvegicus, sc, read-out: dosage of antagonist which reduced the analgesic effect of morphine by approximately 50 per cent
[4] = Solubility, pH of solution and precipitation on pH adjustment or dilution; format: physicochemical; details: for pH at which a precipitate formed: 1 percent solution, addition of N/10 sodium hydroxide
Method: A. A mixture of 8.7 g. of racemic cis 1,2,3,4,5,6-hexahydro-6,11-dimethyl-8-hydroxy-2,6-methano-3-benzazocine (which is also known as racemic cis 2'-hydroxy-5,9-dimethyl-6,7-benzomorphan), 6.0 g of 1-bromo-3-methyl-2-butene, 5.0 g. of sodium bicarbonate, and 125 ml. of N,N-dimethylformamide was stirred and refluxed for approximately 41/2 hours. The reaction mixture was then filtered, and the solid on the filter was washed with ethanol. The filtrate and the wash liquor were combined, concentrated under reduced pressure, and then extracted with chloroform. The chloroform extract was concentrated under reduced pressure to yield a syrup which weighed 15.8 g. This syrup was dissolved in 120 ml. of diethyl ether and the resulting solution was filtered to remove approximately one-half gram of a brown amorphous solid. The filtrate was extracted with a mixture of 5 ml. of concentrated hydrochloric acid and 20 ml. of water. To the extract there was added 5 ml. of concentrated ammonium hydroxide solution and ice. A pale tan syrup separated from solution and after stirring, this syrup solidified. The resulting pale tan solid was collected and dried; it weighed 10.6 g. After two recrystallizations from a mixture of methyl alcohol and water, with charcoaling, this solid weighed 8.2 g. and melted at 145°-147° C. The product thus obtained was racemic cis 1,2,3,4,5,6-hexahydro-3-(3-methyl-2-butenyl)-6,11-dimethyl-8-hydroxy-2,6-methano-3-benzazocine (Formula II: Y = --CH2 --CH=C(CH3)2; R^3 = --H), having the molecular formula C19 H27 NO. This product was soluble in a mixture of 0.35 ml. of N/2 hydrochloric acid and 0.15 ml. of water to the extent of 10 percent, the pH of the 1 percent solution being 2.80; and when the pH of the 1 percent solution was gradually raised by addition of N/10 sodium hydroxide solution, a precipitate formed at pH 5.4. When the base was converted to the hydrochloride and was then regenerated from this salt it melted at 151°-153° C. The hydrochloride of this base melted at 245°-247° C. (dec.). and the cyclohexylsulfamate of this base melted at 163°-166° C. The base formed a grayish-yellowtannate.
The racemic trans product was converted to its hydrobromide, having the molecular formula C19 H27 NO·HBr, which was obtained as white needles which melted at 240°-241° C.
The dextro trans product was converted to its hydrochloride, having the molecular formula C19 H27 NO·HCl, which was obtained as white crystals which melted at 254°-255° C.
The levo trans product was converted to its hydrochloride, having the molecular formula C19 H27 NO·HCl, which was obtained as white crystals which melted at 254°-255° C. (dec.); this hydrochloride was soluble in water to the extent of 5 percent, the pH of a 1 percent aqueous solution being 5.7, a precipitate being formed when the 1 percent aqueous solution was adjusted to 7.0 by addition of N/10 sodium hydroxide solution.
A. A mixture of 9.25 g. of racemic cis 1,2,3,4,5,6-hexahydro-6-ethyl-11-methyl-8-hydroxy-2,6-methano-3-benzazocine, 6.0 g. of 1-bromo-3-methyl-2-butene, 125 ml. of N,N-dimethylformamide, and 5.0 g. of sodium bicarbonate was stirred and refluxed for approximately 41/2 hours. The reaction mixture was then filtered, and the solid collected on the filter was washed with ethanol. The filtrate and the wash liquor were combined and concentrated under reduced pressure. To the resulting residue there was added 50 ml. of diethyl ether, and the mixture was filtered. Approximately 0.6 g. of solid was collected on the filter, and 8.2 g. of brown solid separated from the filtrate and was collected by filtration. These two crops of solid (8.8 g.) were combined, 25 ml. of methanol was added, and the mixture was boiled. Only a small portion of the solid dissolved. This mixture was mixed with 25 ml. of water and chilled. The mixture was filtered to collect 8.3 g. of pale tan solid which melted at 156°-158° C. […]

[5] = Clinical analgesia in human subjects; format: in vivo; details: for dose approximately equivalent to 10 mg. of morphine sulfate as an analgesic: parenterally in humans; for analgesia in human subjects: parenterally
Method: In human subjects, however, the compounds of Formulas I and II are valuable and effective agents for producing analgesia when administered in the general range of about 10 to 500 mg. per 70 kg. of subject weight, the dosage depending of course on the particular compound, the mode of administration, and the like. The following clinical results which were obtained in human subjects are illustrative. For oral administration the free base was used, and for parenteral (usually intramuscular) administration an aqueous solution of the lactate salt was used; the dosages are expressed in each instance in terms of milligrams of base per 70 kilograms of body weight of the human subject.

[6] = ethanol, organic solvent or mixture, read-out: solubility in ethanol
[7] = water, read-out: solubility in water

CC[C@]12CCN(CC=C(C)C)[C@@H](Cc3ccc(O)cc31)C2C (relative stereo) [7D (dextro trans), trans 1,2,3,4,5,6-hexahydro-3-(3-methyl-2-butenyl)-6-ethyl-11-methyl-8-hydroxy-2,6-methano-3-benzazocine]
analgesic activity in D'Amour-Smith test ([1]; at 30 mg./kg.): inactive | toxicity in D'Amour-Smith test ([1]; at 60 mg./kg.): toxic | maximum degree of antagonism ([2]; at 1.25 mg./kg.): 30%

CC(C)=CCN1CC[C@]2(C)c3cc(O)ccc3C[C@H]1C2C (relative stereo) [4D (dextro), cis 1,2,3,4,5,6-hexahydro-3-(3-methyl-2-butenyl)-6,11-dimethyl-8-hydroxy-2,6-methano-3-benzazocine]
dosage of antagonist which reduced the analgesic effect of morphine by approximately 50 per cent [3]: 21.0 mg/kg | dosage of antagonist which reduced the analgesic effect of meperidine by approximately 50 per cent [2]: 18.0 mg/kg

CC(C)=CCN1CC[C@@]2(C)c3cc(O)ccc3C[C@H]1C2C (relative stereo) [4E (dextro) hydrochloride, trans 1,2,3,4,5,6-hexahydro-3-(3-methyl-2-butenyl)-6,11-dimethyl-8-hydroxy-2,6-methano-3-benzazocine]
pH of a 1 percent aqueous solution [4]: 5.6 | pH at which a precipitate formed [4]: > 6.9 | solubility in water ([4]; water): 5%

C=C(C)CN1CC[C@@]2(C)c3cc(O)ccc3C[C@@H]1[C@@H]2C (relative stereo) [Example 8A, 1,2,3,4,5,6-Hexahydro-3-(2-methyl-2-propenyl)-6,11-dimethyl-8-hydroxy-2,6-methano-3-benzazocine]
ED50 [3]: 0.19 mg/kg | ED50 [2]: 0.094 mg/kg

C=CCN1CC[C@@]2(CC)c3cc(O)ccc3C[C@@H]1[C@@H]2C (relative stereo) [Example 1A, racemic cis 1,2,3,4,5,6-hexahydro-3-allyl-6-ethyl-11-methyl-8-hydroxy-2,6-methano-3-benzazocine]
dose approximately equivalent to 10 mg. of morphine sulfate as an analgesic [5]: ~5 mg | analgesia in human subjects ([5]; 5 mg./kg. and 10 mg./kg.): effective and satisfactory analgesia | ED50 [3]: 0.044 mg/kg | ED50 [2]: 0.049 mg/kg

CC(C)=CCN1CC[C@@]2(C)c3cc(O)ccc3C[C@H]1C2C (relative stereo) [4E (levo) hydrochloride, trans 1,2,3,4,5,6-hexahydro-3-(3-methyl-2-butenyl)-6,11-dimethyl-8-hydroxy-2,6-methano-3-benzazocine]
pH of a 1 percent aqueous solution [4]: 5.7 | pH at which a precipitate formed [4]: 7.0 | solubility in water ([4]; water): 5%

CC[C@]12CCN(CC=C(C)C)[C@H](Cc3ccc(O)cc31)[C@@H]2C (relative stereo) [Example 7A, racemic cis 1,2,3,4,5,6-hexahydro-3-(3-methyl-2-butenyl)-6-ethyl-11-methyl-8-hydroxy-2,6-methano-3-benzazocine]
dose approximately equivalent to 10 mg. of morphine sulfate as an analgesic [5]: ~40 mg | analgesia in human subjects ([5]; 10 mg./70 kg. to 80 mg./70 kg.): effective and satisfactory analgesia | solubility ([4]; dilute hydrochloric acid, mixture of 0.34 ml. of N/2 hydrochloric acid and 19.66 ml. of water, read-out: solubility in dilute hydrochloric acid): < 2.5 mg/mL | solubility [4, 6]: < 10 mg/mL | ED50 [3]: 11.6 mg/kg | ED50 [2]: 10.9 mg/kg

CC(C)=CCN1CC[C@@]2(C)c3cc(O)ccc3C[C@@H]1[C@H]2C (relative stereo) [4E (racemic) hydrobromide, trans 1,2,3,4,5,6-hexahydro-3-(3-methyl-2-butenyl)-6,11-dimethyl-8-hydroxy-2,6-methano-3-benzazocine]
solubility [4, 6]: 10 mg/mL | solubility [4, 7]: < 2.5 mg/mL

CC[C@]12CCN(CC=C(C)C)[C@H](Cc3ccc(O)cc31)[C@H]2C (relative stereo) [7D (racemic trans), trans 1,2,3,4,5,6-hexahydro-3-(3-methyl-2-butenyl)-6-ethyl-11-methyl-8-hydroxy-2,6-methano-3-benzazocine]
ED50 ([1]; Rattus norvegicus): 1.4 mg/kg | maximum degree of antagonism ([2]; at 0.1 mg/kg.): 50%

C=C(C)CN1CC[C@@]2(C)c3cc(O)ccc3C[C@@H]1[C@@H]2C (relative stereo) [8A hydrochloride, 1,2,3,4,5,6-Hexahydro-3-(2-methyl-2-propenyl)-6,11-dimethyl-8-hydroxy-2,6-methano-3-benzazocine]
solubility [4, 6]: < 10 mg/mL | solubility [4, 7]: < 2.5 mg/mL

CC[C@]12CCN(CC=C(C)C)[C@@H](Cc3ccc(O)cc31)C2C (relative stereo) [7D (levo trans), trans 1,2,3,4,5,6-hexahydro-3-(3-methyl-2-butenyl)-6-ethyl-11-methyl-8-hydroxy-2,6-methano-3-benzazocine]
ED50 in D'Amour-Smith test for analgesia [1]: 0.94 mg/kg | maximum degree of antagonism ([2]; at 0.1 mg/kg.): 22%

CC(C)=CCN1CC[C@]2(C)c3cc(O)ccc3C[C@H]1C2C (relative stereo) [4D (levo), cis 1,2,3,4,5,6-hexahydro-3-(3-methyl-2-butenyl)-6,11-dimethyl-8-hydroxy-2,6-methano-3-benzazocine]
dosage of antagonist which reduced the analgesic effect of morphine by approximately 50 per cent [3]: 4.3 mg/kg | dosage of antagonist which reduced the analgesic effect of meperidine by approximately 50 per cent [2]: 1.05 mg/kg
